Converted amounts (≈) assume the structure as drawn.
Assays:
[1] = tested on: A549; assay: Antiproliferative activity against human A549 cells assessed as inhibition of cell growth incubated for 48 hrs by alamarblue staining based assay; assay type: functional; settings: A549, 48 h
[2] = target: Pyruvate kinase PKM (Homo sapiens, UniProt P14618); assay: Inhibition of recombinant PKM2 (unknown origin)
[3] = tested on: COLO 205; assay: Antiproliferative activity against human COLO 205 cells assessed as inhibition of cell growth incubated for 48 hrs by alamarblue staining based assay; assay type: functional; settings: COLO 205, 48 h
[4] = tested on: MCF7; assay: Antiproliferative activity against human MCF7 cells assessed as inhibition of cell growth incubated for 48 hrs by alamarblue staining based assay; assay type: functional; settings: MCF7, 48 h
[5] = target: cAMP and cAMP-inhibited cGMP 3',5'-cyclic phosphodiesterase 10A (Homo sapiens, UniProt Q9Y233); assay: Inhibition of full length human PDE10A incubated for 1 hr by topcount Scintillation plate reader analysis
[6] = tested on: A549; assay: Antiproliferative activity against human A549 cells assessed as inhibition of cell growth incubated for 72 hrs by MTT assay; assay type: functional, cell-based; settings: A549, 72 h
[7] = tested on: HCT-116; assay: Antiproliferative activity against human HCT-116 cells assessed as inhibition of cell growth incubated for 72 hrs by MTT assay; assay type: functional, cell-based; settings: HCT-116, 72 h
[8] = tested on: CCRF-CEM; assay: Antiproliferative activity against human CCRF-CEM cells assessed as inhibition of cell growth incubated for 72 hrs by MTT assay; assay type: functional, cell-based
[9] = tested on: CEM-DNR; assay: Antiproliferative activity against human CEM-DNR cells assessed as inhibition of cell growth incubated for 72 hrs by MTT assay; assay type: functional, cell-based
[10] = tested on: K562; assay: Antiproliferative activity against human K562 cells assessed as inhibition of cell growth incubated for 72 hrs by MTT assay; assay type: functional, cell-based; settings: K562, 72 h
[11] = tested on: Candida dubliniensis; assay: Antifungal activity against Candida dubliniensis CD36 assessed as reduction in fungal growth incubated for 24 hrs by CLSI based assay; assay type: functional
[12] = tested on: Candida albicans; assay: Antifungal activity against Candida albicans ATCC 10231 assessed as reduction in fungal growth incubated for 24 hrs by CLSI based assay; assay type: functional
[13] = tested on: Meyerozyma guilliermondii; assay: Antifungal activity against Meyerozyma guilliermondii assessed as reduction in fungal growth incubated for 24 hrs by CLSI based assay; assay type: functional
[14] = tested on: Pichia kudriavzevii; assay: Antifungal activity against Candida krusei ATCC 6358 assessed as reduction in fungal growth incubated for 24 hrs by CLSI based assay; assay type: functional
[15] = tested on: Nakaseomyces glabratus; assay: Antifungal activity against Candida glabrata CBS138 assessed as reduction in fungal growth incubated for 24 hrs by CLSI based assay; assay type: functional
[16] = tested on: Kluyveromyces marxianus; assay: Antifungal activity against Candida kefyr assessed as reduction in fungal growth incubated for 24 hrs by CLSI based assay; assay type: functional
[17] = tested on: Candida tropicalis; assay: Antifungal activity against Candida tropicalis MYA-3404 assessed as reduction in fungal growth incubated for 24 hrs by CLSI based assay; assay type: functional
[18] = tested on: A549; assay: Antiproliferative activity against human A549 cells assessed as inhibition of cell growth by MTT assay; assay type: functional, cell-based
[19] = target: Albumin (Homo sapiens, UniProt P02768); assay: Inhibition of Albumin (unknown origin) denaturation at 100 uM relative to control
[20] = tested on: BK polyomavirus; assay: Antiviral activity against BK polyomavirus MM infected in human HFF cells assessed as reduction in viral growth incubated for 7 days; assay type: functional, organism-based; settings: Betapolyomavirus hominis, 168 h
[21] = Cytotoxicity against human HFF cells assessed as cell growth inhibition by celltiter-glo assay; assay type: toxicity, cell-based
[22] = tested on: Aorta; assay: Vasorelaxant activity in rabbit aorta assessed as inhibition of phenylephrine-induced contraction; assay type: functional, tissue-based; settings: Oryctolagus cuniculus
[23] = tested on: Neurospora crassa; assay: Antifungal activity against Neurospora crassa assessed as inhibition of fungal growth incubated for 48 hrs; assay type: functional
[24] = tested on: Cryptococcus neoformans; assay: Antifungal activity against Cryptococcus neoformans NCPF 250316 assessed as inhibition of fungal growth incubated for 48 hrs; assay type: functional
[25] = tested on: Kluyveromyces marxianus; assay: Antifungal activity against Candida keyfer […] 410004 assessed as inhibition of fungal growth incubated for 48 hrs; assay type: functional
[26] = tested on: Candida albicans; assay: Antifungal activity against Candida albicans NCPF 400034 assessed as inhibition of fungal growth incubated for 48 hrs; assay type: functional
[27] = tested on: Aspergillus niger; assay: Antifungal activity against Aspergillus niger assessed as inhibition of fungal growth incubated for 48 hrs; assay type: functional

Pyruvate kinase PKM, sequence (P14618 whole entry): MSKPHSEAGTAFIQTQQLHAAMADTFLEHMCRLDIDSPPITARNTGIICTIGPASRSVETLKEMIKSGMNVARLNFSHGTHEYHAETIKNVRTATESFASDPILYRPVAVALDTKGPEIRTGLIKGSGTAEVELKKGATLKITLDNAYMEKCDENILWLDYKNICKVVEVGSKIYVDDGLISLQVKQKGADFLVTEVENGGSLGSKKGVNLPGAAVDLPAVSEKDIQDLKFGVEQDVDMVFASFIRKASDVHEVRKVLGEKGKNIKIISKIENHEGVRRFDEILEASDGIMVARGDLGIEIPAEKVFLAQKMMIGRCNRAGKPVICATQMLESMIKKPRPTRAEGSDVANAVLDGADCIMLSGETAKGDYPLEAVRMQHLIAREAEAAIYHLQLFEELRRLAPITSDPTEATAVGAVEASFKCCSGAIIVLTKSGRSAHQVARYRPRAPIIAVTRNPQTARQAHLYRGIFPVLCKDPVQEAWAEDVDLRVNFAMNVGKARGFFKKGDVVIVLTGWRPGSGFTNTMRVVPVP
cAMP and cAMP-inhibited cGMP 3',5'-cyclic phosphodiesterase 10A, sequence (Q9Y233 whole entry): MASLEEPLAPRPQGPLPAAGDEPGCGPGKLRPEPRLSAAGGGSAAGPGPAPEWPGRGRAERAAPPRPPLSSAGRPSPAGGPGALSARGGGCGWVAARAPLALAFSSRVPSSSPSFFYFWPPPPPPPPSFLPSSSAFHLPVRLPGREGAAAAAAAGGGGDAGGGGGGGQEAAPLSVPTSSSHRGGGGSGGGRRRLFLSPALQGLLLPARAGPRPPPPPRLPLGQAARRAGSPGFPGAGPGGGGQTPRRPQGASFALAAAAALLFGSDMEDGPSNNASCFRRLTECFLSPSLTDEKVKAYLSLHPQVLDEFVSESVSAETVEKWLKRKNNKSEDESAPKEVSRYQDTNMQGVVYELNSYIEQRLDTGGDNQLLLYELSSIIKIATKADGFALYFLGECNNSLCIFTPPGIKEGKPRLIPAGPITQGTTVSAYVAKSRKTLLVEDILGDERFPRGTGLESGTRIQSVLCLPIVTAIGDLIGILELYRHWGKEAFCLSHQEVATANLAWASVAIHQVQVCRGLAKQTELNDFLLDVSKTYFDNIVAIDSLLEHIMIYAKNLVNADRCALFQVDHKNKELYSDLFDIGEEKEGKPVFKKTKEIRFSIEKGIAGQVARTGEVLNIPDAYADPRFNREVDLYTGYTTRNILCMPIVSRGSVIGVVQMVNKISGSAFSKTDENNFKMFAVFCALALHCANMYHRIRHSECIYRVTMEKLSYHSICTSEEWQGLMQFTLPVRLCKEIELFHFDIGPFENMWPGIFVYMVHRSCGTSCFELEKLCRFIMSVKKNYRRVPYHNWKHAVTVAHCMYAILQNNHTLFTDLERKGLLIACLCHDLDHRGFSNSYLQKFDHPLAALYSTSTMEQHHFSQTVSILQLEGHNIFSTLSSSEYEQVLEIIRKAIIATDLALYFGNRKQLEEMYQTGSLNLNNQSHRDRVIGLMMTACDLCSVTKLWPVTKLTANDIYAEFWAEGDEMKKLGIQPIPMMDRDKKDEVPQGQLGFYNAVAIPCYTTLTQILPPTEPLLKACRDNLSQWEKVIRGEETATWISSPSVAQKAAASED
Albumin, sequence (P02768 whole entry): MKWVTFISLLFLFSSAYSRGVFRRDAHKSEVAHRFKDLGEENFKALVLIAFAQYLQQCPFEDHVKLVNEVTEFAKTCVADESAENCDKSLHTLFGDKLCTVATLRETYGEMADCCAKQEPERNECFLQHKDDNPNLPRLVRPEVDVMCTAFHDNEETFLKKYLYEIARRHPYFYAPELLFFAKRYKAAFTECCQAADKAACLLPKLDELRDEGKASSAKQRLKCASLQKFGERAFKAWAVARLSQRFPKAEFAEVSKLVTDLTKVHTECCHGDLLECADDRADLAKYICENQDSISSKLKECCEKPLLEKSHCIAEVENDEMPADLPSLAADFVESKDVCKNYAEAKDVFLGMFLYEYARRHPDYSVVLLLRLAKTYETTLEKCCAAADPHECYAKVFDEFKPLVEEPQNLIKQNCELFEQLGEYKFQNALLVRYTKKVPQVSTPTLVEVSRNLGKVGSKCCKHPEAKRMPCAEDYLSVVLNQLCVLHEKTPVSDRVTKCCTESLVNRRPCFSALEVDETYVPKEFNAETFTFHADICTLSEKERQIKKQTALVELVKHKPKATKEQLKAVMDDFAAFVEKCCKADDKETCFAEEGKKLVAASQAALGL

SMILES: O=C(CN1CCN(c2ncccn2)CC1)c1cnc2ncccn12
- IC50 [1]: 24.4 µM
- IC50 [2]: 0.45 µM
- IC50 [3]: 65.8 µM
- IC50 [4]: 14.7 µM

SMILES: Cc1c(C(=O)N2CCC2)cnn1C(=O)Nc1ccn2cc(-c3ccccc3)nc2n1
- IC50 [5]: 0.003 µM

SMILES: N#Cc1ccc(-c2c[nH]c(=O)n3ccnc23)cc1
- IC50 [6]: 5.07 µM
- IC50 [7]: 42.5 µM
- IC50 [8]: 1.45 µM
- IC50 [9]: 18.8 µM
- IC50 [10]: 17.7 µM

SMILES: O=C(c1ccccc1)c1cnc2ncccn12
- MIC [11]: 0.062 µg/mL (≈ 0.278 µM)
- MIC [12]: 0.125 µg/mL (≈ 0.56 µM)
- MIC [13]: 0.062 µg/mL (≈ 0.278 µM)
- MIC [14]: 0.5 µg/mL (≈ 2.24 µM)
- MIC [15]: 0.062 µg/mL (≈ 0.278 µM)
- MIC [16]: 0.125 µg/mL (≈ 0.56 µM)
- MIC [17]: 0.5 µg/mL (≈ 2.24 µM)

SMILES: N#Cc1ccccc1N1CCN(CC(=O)c2cnc3ncccn23)CC1
- IC50 [1]: 27.9 µM
- IC50 [2]: 1.2 µM
- IC50 [3]: 64.8 µM
- IC50 [4]: 11 µM

SMILES: CC(=O)NC1(Cc2c[nH]c3ccc(Br)cc23)C(=O)N=C2N=CC=CN21 (stereo not drawn)
- IC50 [18]: 1.4 µM

SMILES: CCOC(=O)c1ccc(-c2cn3cccnc3n2)cc1
- inhibition at 100 µM [19]: 54.2%

SMILES: CS(=O)(=O)C1=CNC(=O)N2CCN=C12
- EC50 [20]: 22.4 µM
- CC50 [21]: > 150 µM

SMILES: Cc1c(C(=O)N2CCC2)cnn1CC(=O)Nc1ccn2cc(-c3ccccc3)nc2n1
- IC50 [5]: 0.004 µM

SMILES: Cc1c(C(=O)N2CC=CC2)cnn1C(=O)Nc1ccn2cc(-c3ccccc3)nc2n1
- IC50 [5]: 0.009 µM

SMILES: COc1ccc(C(=O)N2CCN(CC(=O)c3cnc4ncccn34)CC2)cc1
- IC50 [1]: 24 µM
- IC50 [2]: 0.314 µM
- IC50 [3]: 44.9 µM
- IC50 [4]: 11.6 µM

SMILES: Cc1ccc(N2CCN(CC(=O)c3cnc4ncccn34)CC2)cc1
- IC50 [1]: 27.1 µM
- IC50 [2]: 0.06 µM
- IC50 [3]: 57.8 µM
- IC50 [4]: 14.5 µM

SMILES: Nc1nc(N)nc(-c2nc(Cc3ccccc3F)c3ncccn23)n1
- IC50 [22]: 0.215 µM

SMILES: O=C(CN1CCN(c2ccco2)CC1)c1cnc2ncccn12
- IC50 [1]: 19.4 µM
- IC50 [2]: 0.31 µM
- IC50 [3]: 61 µM
- IC50 [4]: 10.9 µM

SMILES: O=C(O)c1ccccc1Nc1c(Cl)cccc1Cl
- inhibition at 100 µM [19]: 84.7%

SMILES: O=C(CN1CCN(C(=O)c2ccc(Cl)cc2)CC1)c1cnc2ncccn12
- IC50 [1]: 25.3 µM
- IC50 [2]: 1.86 µM
- IC50 [3]: 28 µM
- IC50 [4]: 11.8 µM

SMILES: O=c1[nH]cc(-c2ccc(-c3ccccc3)cc2)c2nccn12
- IC50 [6]: 10.1 µM
- IC50 [8]: 8.59 µM
- IC50 [9]: 2.84 µM
- IC50 [10]: 15.2 µM

SMILES: CC(=O)NC1(Cc2ccc(N)cc2)C(=O)N=C2N=CC=CN21 (stereo not drawn)
- IC50 [18]: 3.2 µM

SMILES: Cc1ccc(C(=O)c2cnc3ncccn23)cc1
- MIC [11]: 0.25 µg/mL (≈ 1.05 µM)
- MIC [12]: 0.12 µg/mL (≈ 0.506 µM)
- MIC [13]: 0.062 µg/mL (≈ 0.261 µM)
- MIC [14]: 0.5 µg/mL (≈ 2.11 µM)
- MIC [15]: 0.062 µg/mL (≈ 0.261 µM)
- MIC [16]: 0.5 µg/mL (≈ 2.11 µM)
- MIC [17]: 0.25 µg/mL (≈ 1.05 µM)

SMILES: C[C@@H]1[C@H](O)[C@@H](C)/C=C/C=C/C=C/C=C/C=C/C=C/C=C/[C@H](O[C@@H]2O[C@H](C)[C@@H](O)[C@H](N)[C@@H]2O)C[C@@H]2O[C@](O)(C[C@@H](O)C[C@@H](O)[C@H](O)CC[C@@H](O)C[C@@H](O)CC(=O)O[C@H]1C)C[C@H](O)[C@H]2C(=O)O [AMPHOTERICIN B]
- MIC [23]: 0.39 µg/mL (≈ 0.422 µM)
- MIC [24]: 0.2 µg/mL (≈ 0.216 µM)
- MIC [25]: 12.5 µg/mL (≈ 13.5 µM)
- MIC [26]: 0.78 µg/mL (≈ 0.844 µM)
- MIC [27]: 0.39 µg/mL (≈ 0.422 µM)

SMILES: Nc1ccn(C[C@@H](CO)OCP(=O)(O)O)c(=O)n1 [CIDOFOVIR ANHYDROUS]
- EC50 [20]: 0.24 µM
- CC50 [21]: > 150 µM

SMILES: CC(C)(C)c1nc(-c2cccc(NS(=O)(=O)c3c(F)cccc3F)c2F)c(-c2ccnc(N)n2)s1 [DABRAFENIB]
- IC50 [18]: 0.003 µM

SMILES: OC(Cn1cncn1)(Cn1cncn1)c1ccc(F)cc1F [FLUCONAZOLE]
- MIC [11]: 0.5 µg/mL (≈ 1.63 µM)
- MIC [12]: 0.5 µg/mL (≈ 1.63 µM)
- MIC [13]: 1 µg/mL (≈ 3.27 µM)
- MIC [14]: 4 µg/mL (≈ 13.1 µM)
- MIC [16]: 1 µg/mL (≈ 3.27 µM)
- MIC [17]: 1 µg/mL (≈ 3.27 µM)

SMILES: CC(=O)N1CCN(c2ccc(OCC3COC(Cn4ccnc4)(c4ccc(Cl)cc4Cl)O3)cc2)CC1 (stereo not drawn) [KETOCONAZOLE]
- MIC [11]: 2 µg/mL (≈ 3.76 µM)
- MIC [12]: 8 µg/mL (≈ 15.1 µM)
- MIC [13]: 0.125 µg/mL (≈ 0.235 µM)
- MIC [14]: 1 µg/mL (≈ 1.88 µM)
- MIC [15]: 0.25 µg/mL (≈ 0.47 µM)
- MIC [16]: 0.25 µg/mL (≈ 0.47 µM)
- MIC [17]: 2 µg/mL (≈ 3.76 µM)
